Assay in all cases: Differential Scanning Fluorimetry (DSF) Tm shift
What all share (type): binding
(In general: Differential scanning fluorimetry follows unfolding on heating by fluorescence.)

The target in one experiment is T1, FES Catalytic Domain (Homo sapiens, UniProt P07332).
T1 construct: For all of them, we expressed and purified the catalytic domain separately; His-tag; made in house; host or cells: Escherichia coli
The settings on record: 2 µM protein, 10 µM inhibitor, average of 3 experiments, each in duplicate.

The next experiment deals with T2, CDK2 + Cyclin A (Homo sapiens, UniProt P24941).
T2 construct: CDK2 (P24941); 1–299; His-tag; made in house; host or cells: Escherichia coli
Particulars: CDK2 + Cyclin A; 2 µM protein, 10 µM inhibitor; average of 3 experiments, each in duplicate.

The target in the next experiment is T3, FAK2 Catalytic Domain (Homo sapiens, UniProt Q14289).
T3 construct: For all of them, we expressed and purified the catalytic domain separately; His-tag; made in house; host or cells: Escherichia coli
The settings on record: 2 µM protein, 10 µM inhibitor, average of 3 experiments, each in duplicate.

The target of another experiment is T4, CDK2 + Cyclin E (Homo sapiens, UniProt P24941).
T4 construct: CDK2 (P24941); 1–299; His-tag; made in house; host or cells: Escherichia coli
Particulars: CDK2 + Cyclin E; 2 µM protein, 10 µM inhibitor; average of 3 experiments, each in duplicate.

A further experiment concerns the target T5, PAK7 Catalytic Domain (Homo sapiens, UniProt Q9P286).
T5 construct: For all of them, we expressed and purified the catalytic domain separately; His-tag; made in house; host or cells: Escherichia coli
Particulars: 2 µM protein, 10 µM inhibitor, average of 3 experiments, each in duplicate.

The target in the next experiment is T6, DMPK Catalytic Domain (Homo sapiens, UniProt Q09013).
T6 construct: For all of them, we expressed and purified the catalytic domain separately; His-tag; made in house; host or cells: Escherichia coli
T6 sequence (Q09013 71-339 limits assumed): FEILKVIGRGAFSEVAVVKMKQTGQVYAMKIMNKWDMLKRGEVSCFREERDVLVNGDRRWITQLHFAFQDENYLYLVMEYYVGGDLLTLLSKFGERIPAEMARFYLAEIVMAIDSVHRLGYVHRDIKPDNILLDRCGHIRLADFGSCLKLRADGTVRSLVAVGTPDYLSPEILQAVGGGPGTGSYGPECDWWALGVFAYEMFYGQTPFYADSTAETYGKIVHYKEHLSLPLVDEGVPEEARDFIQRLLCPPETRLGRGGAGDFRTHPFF
Particulars: 2 µM protein, 10 µM inhibitor, average of 3 experiments, each in duplicate.

A further experiment deals with T7, CHK2 Catalytic Domain (Homo sapiens, UniProt O96017).
T7 construct: For all of them, we expressed and purified the catalytic domain separately; His-tag; made in house; host or cells: Escherichia coli
Particulars: 2 µM protein, 10 µM inhibitor, average of 3 experiments, each in duplicate.

A further experiment has as its target T8, STK3 Catalytic Domain (Homo sapiens, UniProt Q13188).
T8 construct: For all of them, we expressed and purified the catalytic domain separately; His-tag; made in house; host or cells: Escherichia coli
T8 sequence (Q13188 27-278 limits assumed): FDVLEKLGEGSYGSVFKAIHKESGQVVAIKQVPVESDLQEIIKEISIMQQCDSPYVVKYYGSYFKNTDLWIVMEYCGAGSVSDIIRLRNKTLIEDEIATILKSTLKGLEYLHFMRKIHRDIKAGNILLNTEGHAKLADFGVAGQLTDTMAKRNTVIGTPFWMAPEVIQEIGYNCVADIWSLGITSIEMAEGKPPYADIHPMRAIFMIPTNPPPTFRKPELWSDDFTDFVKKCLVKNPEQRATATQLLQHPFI
Particulars: 2 µM protein, 10 µM inhibitor, average of 3 experiments, each in duplicate.

Experiment [1] has as its target T9, PAK4 Catalytic Domain+PBD (Homo sapiens, UniProt O96013).
T9 construct: for 8, we also made a longer version containing one or more additional domains; His-tag; made in house; host or cells: Escherichia coli
The settings on record: 2 µM protein, 10 µM inhibitor, average of 3 experiments, each in duplicate.

The target of the next experiment is T10, PAK4 Catalytic Domain (Homo sapiens, UniProt O96013).
T10 construct: For all of them, we expressed and purified the catalytic domain separately; His-tag; made in house; host or cells: Escherichia coli
The settings on record: 2 µM protein, 10 µM inhibitor, average of 3 experiments, each in duplicate.

For the next experiment, the target named is T11, FES Catalytic Domain+SH2 (Homo sapiens, UniProt P07332).
T11 construct: for 8, we also made a longer version containing one or more additional domains; His-tag; made in house; host or cells: Escherichia coli
Particulars: 2 µM protein, 10 µM inhibitor, average of 3 experiments, each in duplicate.

The target in experiment [2] is T12, STK3 Catalytic domain+SARAH (Homo sapiens, UniProt Q13188).
T12 construct: for 8, we also made a longer version containing one or more additional domains; His-tag; made in house; host or cells: Escherichia coli
T12 sequence (Q13188 1-491): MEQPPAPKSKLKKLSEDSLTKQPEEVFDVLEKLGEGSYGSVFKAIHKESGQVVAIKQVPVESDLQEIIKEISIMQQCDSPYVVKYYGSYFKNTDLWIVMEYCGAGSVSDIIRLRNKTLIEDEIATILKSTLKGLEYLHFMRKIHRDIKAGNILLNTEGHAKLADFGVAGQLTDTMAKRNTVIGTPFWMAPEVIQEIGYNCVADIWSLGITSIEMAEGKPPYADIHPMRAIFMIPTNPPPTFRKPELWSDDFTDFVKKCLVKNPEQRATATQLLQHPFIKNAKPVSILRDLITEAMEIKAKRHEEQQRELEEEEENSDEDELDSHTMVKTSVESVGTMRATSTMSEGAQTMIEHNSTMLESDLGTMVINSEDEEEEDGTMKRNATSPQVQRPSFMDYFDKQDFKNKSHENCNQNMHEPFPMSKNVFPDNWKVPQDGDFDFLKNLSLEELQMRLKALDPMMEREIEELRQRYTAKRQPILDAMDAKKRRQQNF
Particulars: 2 µM protein, 10 µM inhibitor, average of 3 experiments, each in duplicate.

In a further experiment the target is T13, AKT3 Catalytic Domain (Homo sapiens, UniProt Q9Y243).
T13 construct: AKT3 (Q9Y243); CD; His-tag; made in house; host or cells: Escherichia coli
Particulars: 2 µM protein, 10 µM inhibitor, average of 3 experiments, each in duplicate.

Experiment [3] concerns the target SRC Catalytic Domain+SH2+SH3 (Homo sapiens, UniProt P12931). The settings on record: 2 µM protein, 10 µM inhibitor, average of 3 experiments, each in duplicate.

T11 sequence (P07332 448-822 limits assumed): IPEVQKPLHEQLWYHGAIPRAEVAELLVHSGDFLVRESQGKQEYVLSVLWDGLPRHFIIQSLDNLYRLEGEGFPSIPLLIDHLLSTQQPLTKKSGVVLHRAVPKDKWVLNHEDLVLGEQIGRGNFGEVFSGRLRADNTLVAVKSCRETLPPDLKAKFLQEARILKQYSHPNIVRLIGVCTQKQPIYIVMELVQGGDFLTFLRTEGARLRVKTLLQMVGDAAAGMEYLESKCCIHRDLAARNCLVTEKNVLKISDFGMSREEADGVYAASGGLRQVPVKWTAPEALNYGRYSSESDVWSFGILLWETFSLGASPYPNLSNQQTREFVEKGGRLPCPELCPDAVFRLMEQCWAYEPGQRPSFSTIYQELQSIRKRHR
T5 sequence (Q9P286 449-700 limits assumed): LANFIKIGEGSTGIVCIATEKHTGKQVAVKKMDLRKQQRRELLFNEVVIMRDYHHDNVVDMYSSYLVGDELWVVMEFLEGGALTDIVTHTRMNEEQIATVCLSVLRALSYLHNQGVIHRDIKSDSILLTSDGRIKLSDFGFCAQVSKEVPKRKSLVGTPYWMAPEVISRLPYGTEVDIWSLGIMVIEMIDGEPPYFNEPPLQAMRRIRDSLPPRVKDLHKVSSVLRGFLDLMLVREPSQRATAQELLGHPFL
T1 sequence (P07332 561-822 limits assumed): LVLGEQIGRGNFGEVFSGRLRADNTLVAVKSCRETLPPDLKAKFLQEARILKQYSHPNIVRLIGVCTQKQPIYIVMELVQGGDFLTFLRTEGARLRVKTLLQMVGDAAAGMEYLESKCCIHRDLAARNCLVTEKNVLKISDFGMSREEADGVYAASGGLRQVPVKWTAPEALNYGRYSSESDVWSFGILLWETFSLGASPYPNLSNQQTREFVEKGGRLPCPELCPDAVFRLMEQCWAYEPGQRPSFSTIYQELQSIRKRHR
T9 sequence (O96013 whole entry, the tested form may be a part): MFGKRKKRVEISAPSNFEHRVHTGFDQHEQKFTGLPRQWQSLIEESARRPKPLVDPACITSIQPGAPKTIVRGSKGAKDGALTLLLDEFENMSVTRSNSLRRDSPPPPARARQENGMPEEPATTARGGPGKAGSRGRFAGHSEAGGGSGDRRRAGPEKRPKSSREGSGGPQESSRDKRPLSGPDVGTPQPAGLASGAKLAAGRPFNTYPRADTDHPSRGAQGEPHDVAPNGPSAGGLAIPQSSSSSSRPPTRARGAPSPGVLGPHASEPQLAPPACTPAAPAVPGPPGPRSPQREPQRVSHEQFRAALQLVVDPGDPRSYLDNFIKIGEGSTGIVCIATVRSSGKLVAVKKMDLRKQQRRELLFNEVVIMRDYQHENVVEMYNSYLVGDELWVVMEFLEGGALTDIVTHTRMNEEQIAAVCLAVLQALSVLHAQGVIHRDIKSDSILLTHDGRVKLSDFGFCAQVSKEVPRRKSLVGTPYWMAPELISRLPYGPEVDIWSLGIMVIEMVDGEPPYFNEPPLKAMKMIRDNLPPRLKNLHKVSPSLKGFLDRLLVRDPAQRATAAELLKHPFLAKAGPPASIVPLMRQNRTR
T7 sequence (O96017 220-486 limits assumed): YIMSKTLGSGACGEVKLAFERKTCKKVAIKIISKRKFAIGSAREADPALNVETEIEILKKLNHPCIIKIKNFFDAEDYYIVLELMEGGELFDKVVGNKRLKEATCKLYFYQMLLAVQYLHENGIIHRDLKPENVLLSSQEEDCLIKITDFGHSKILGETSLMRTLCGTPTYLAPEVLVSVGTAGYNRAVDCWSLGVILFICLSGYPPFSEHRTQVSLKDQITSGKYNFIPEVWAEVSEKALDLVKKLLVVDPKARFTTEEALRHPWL
T10 sequence (O96013 321-572 limits assumed): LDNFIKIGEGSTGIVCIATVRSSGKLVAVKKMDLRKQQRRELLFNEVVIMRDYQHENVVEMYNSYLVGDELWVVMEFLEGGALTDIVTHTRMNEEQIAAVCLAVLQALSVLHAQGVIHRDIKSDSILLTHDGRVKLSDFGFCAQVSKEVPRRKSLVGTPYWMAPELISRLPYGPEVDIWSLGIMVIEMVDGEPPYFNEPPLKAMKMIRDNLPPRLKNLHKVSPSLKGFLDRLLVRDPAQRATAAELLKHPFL
T13 sequence (Q9Y243 122-479): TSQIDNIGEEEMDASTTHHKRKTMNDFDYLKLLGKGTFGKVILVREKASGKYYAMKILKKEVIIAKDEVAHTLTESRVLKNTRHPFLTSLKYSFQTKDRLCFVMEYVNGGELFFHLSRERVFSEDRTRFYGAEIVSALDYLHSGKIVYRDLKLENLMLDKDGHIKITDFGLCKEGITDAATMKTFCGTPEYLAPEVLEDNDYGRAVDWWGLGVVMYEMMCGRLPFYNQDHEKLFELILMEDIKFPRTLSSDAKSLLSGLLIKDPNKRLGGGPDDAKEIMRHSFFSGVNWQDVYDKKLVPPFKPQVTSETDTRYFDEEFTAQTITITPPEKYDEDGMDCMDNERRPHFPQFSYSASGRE
T3 sequence (Q14289 425-683 limits assumed): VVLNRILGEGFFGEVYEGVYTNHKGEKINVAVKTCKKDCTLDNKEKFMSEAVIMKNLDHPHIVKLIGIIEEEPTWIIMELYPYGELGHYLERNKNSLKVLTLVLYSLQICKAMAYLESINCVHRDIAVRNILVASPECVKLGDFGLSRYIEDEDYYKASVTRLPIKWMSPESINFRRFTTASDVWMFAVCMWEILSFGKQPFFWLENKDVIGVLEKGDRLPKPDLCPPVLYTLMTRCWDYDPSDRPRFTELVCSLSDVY
Chain of SRC Catalytic Domain+SH2+SH3 (P12931 84-523 limits assumed): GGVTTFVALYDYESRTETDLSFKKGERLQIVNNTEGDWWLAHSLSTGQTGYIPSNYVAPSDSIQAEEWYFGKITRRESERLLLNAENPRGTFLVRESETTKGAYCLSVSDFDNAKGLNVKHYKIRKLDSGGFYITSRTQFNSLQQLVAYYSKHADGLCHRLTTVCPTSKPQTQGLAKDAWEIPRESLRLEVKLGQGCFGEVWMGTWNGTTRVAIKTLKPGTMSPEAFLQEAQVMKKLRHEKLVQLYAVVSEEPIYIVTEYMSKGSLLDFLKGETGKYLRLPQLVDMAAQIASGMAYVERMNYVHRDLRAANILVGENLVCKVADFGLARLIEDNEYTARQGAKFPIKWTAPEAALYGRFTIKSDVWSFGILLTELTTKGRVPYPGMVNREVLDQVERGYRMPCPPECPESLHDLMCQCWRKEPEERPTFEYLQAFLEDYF

Turning to `CCN1/C(=C/C(C)=O)Sc2ccc(OC)cc21` [Cdc2-Like Kinase Inhibitor, TG003], the “Melting temperature (Tm) shift” value on FES Catalytic Domain was found to be 0.0 degrees Celcius; at CDK2 + Cyclin A, 0.0 degrees Celcius; at FAK2 Catalytic Domain, 0.1 degrees Celcius; on CDK2 + Cyclin E, 0.0 degrees Celcius; at PAK7 Catalytic Domain, 0.0 degrees Celcius; on DMPK Catalytic Domain, 0.2 degrees Celcius. For the same compound, the “Melting temperature (Tm) shift” value at CHK2 Catalytic Domain and at STK3 Catalytic Domain was 0.0 degrees Celcius each time.

As for `O=C1NC(=O)c2c1c1c3ccccc3[nH]c1c1[nH]c3cc(Br)ccc3c21` [Cdk4 Inhibitor], the “Melting temperature (Tm) shift” value in [1] is on record as 0.4 degrees Celcius; at CDK2 + Cyclin E it was 0.7 degrees Celcius; at DMPK Catalytic Domain, 0.8 degrees Celcius; on PAK4 Catalytic Domain, 0.7 degrees Celcius.

Take `CC(C)n1cnc2c(NCc3ccccc3O)nc(NCCCO)nc21` [Cdk Inhibitor, p35]: the “Melting temperature (Tm) shift” value on FES Catalytic Domain is on record as 1.1 degrees Celcius; on CDK2 + Cyclin A it was 3.6 degrees Celcius; in [1] it was 3.9 degrees Celcius; at FAK2 Catalytic Domain, 0.0 degrees Celcius; at CDK2 + Cyclin E, 2.0 degrees Celcius; on PAK7 Catalytic Domain, 1.1 degrees Celcius. Moreover, the “Melting temperature (Tm) shift” value on FES Catalytic Domain+SH2 is given as 0.2 degrees Celcius; on DMPK Catalytic Domain it was 0.3 degrees Celcius; at CHK2 Catalytic Domain, 0.8 degrees Celcius; at PAK4 Catalytic Domain, 1.4 degrees Celcius; in [2] it was 0.4 degrees Celcius; on STK3 Catalytic Domain, 0.3 degrees Celcius.

As to `O=C1NC(=O)c2c1c1c3ccccc3[nH]c1n1cncc21` [Isogranulatimide], the “Melting temperature (Tm) shift” value on FES Catalytic Domain is 1.6 degrees Celcius; on CDK2 + Cyclin A, 0.1 degrees Celcius; on FAK2 Catalytic Domain it was 0.8 degrees Celcius; on CDK2 + Cyclin E it was 0.2 degrees Celcius; on PAK7 Catalytic Domain it was 0.2 degrees Celcius; on AKT3 Catalytic Domain it was 2.9 degrees Celcius. For the same compound, the “Melting temperature (Tm) shift” value at FES Catalytic Domain+SH2 amounted to 0.5 degrees Celcius; at DMPK Catalytic Domain, 0.5 degrees Celcius; at CHK2 Catalytic Domain, 4.5 degrees Celcius; on PAK4 Catalytic Domain, 0.4 degrees Celcius; in experiment [2], 1.3 degrees Celcius; at STK3 Catalytic Domain, 2.6 degrees Celcius.

Regarding `CC(C)(C)c1nc2c3cc[nH]c(=O)c3c3cc(F)ccc3c2[nH]1` [JAK Inhibitor I], the “Melting temperature (Tm) shift” value at FES Catalytic Domain is reported as 0.1 degrees Celcius; at CDK2 + Cyclin A, 0.0 degrees Celcius; in experiment [1] it was 0.2 degrees Celcius; at FAK2 Catalytic Domain it was 3.0 degrees Celcius; on CDK2 + Cyclin E it was 0.0 degrees Celcius; at PAK7 Catalytic Domain, 0.2 degrees Celcius. Also, the “Melting temperature (Tm) shift” value at FES Catalytic Domain+SH2 came to 0.1 degrees Celcius; on CHK2 Catalytic Domain, 8.8 degrees Celcius; on PAK4 Catalytic Domain it was 0.2 degrees Celcius; in [2], 3.2 degrees Celcius; at STK3 Catalytic Domain, 2.1 degrees Celcius.

In the case of `O.O=C1NCCc2[nH]c(-c3ccnc(-c4cnc5ccccc5c4)c3)cc21` [MK-2 Inhibitor III], the “Melting temperature (Tm) shift” value on CDK2 + Cyclin A is 0.1 degrees Celcius; in experiment [1], 0.1 degrees Celcius; at FAK2 Catalytic Domain it was 0.1 degrees Celcius; in experiment [3], 0.1 degrees Celcius; on PAK7 Catalytic Domain, 0.0 degrees Celcius; on AKT3 Catalytic Domain, 0.0 degrees Celcius. The “Melting temperature (Tm) shift” value worked out at 0.3 degrees Celcius at DMPK Catalytic Domain; 1.2 degrees Celcius at CHK2 Catalytic Domain; 0.0 degrees Celcius at PAK4 Catalytic Domain; 0.4 degrees Celcius in [2]; 0.0 degrees Celcius on STK3 Catalytic Domain.

On to `O=C1c2ccccc2-c2nc3nnnn3nc21` [PDK1/Akt/Flt Dual Pathway Inhibitor], for which the “Melting temperature (Tm) shift” value on FES Catalytic Domain was found to be 0.0 degrees Celcius; on CDK2 + Cyclin A, 0.1 degrees Celcius; at CDK2 + Cyclin E, 0.4 degrees Celcius; on AKT3 Catalytic Domain, 3.1 degrees Celcius; at CHK2 Catalytic Domain, 0.6 degrees Celcius; in [2] it was 0.0 degrees Celcius.

On to `O=C1NC(=O)/C(=C/c2ccc3nccnc3c2)S1` [PI 3-Kg Inhibitor], for which the “Melting temperature (Tm) shift” value at FES Catalytic Domain came out at 0.1 degrees Celcius; at CDK2 + Cyclin A, 0.2 degrees Celcius; in experiment [3], 0.0 degrees Celcius; on PAK7 Catalytic Domain, 0.0 degrees Celcius; on AKT3 Catalytic Domain, 0.0 degrees Celcius; at FES Catalytic Domain+SH2, 0.1 degrees Celcius. In addition, the “Melting temperature (Tm) shift” value on DMPK Catalytic Domain was 0.8 degrees Celcius; on CHK2 Catalytic Domain it was 0.4 degrees Celcius; on PAK4 Catalytic Domain, 0.1 degrees Celcius; in experiment [2] it was 0.1 degrees Celcius; on STK3 Catalytic Domain, 0.1 degrees Celcius.

Take `O=C1NC(=O)C(=Cc2ccc3c(c2)OCO3)S1` [PI 3-Kγ Inhibitor VII]: the “Melting temperature (Tm) shift” value worked out at 0.0 degrees Celcius at FES Catalytic Domain; 0.0 degrees Celcius on FAK2 Catalytic Domain; 0.1 degrees Celcius at CDK2 + Cyclin E; 0.0 degrees Celcius on AKT3 Catalytic Domain; 0.3 degrees Celcius at DMPK Catalytic Domain; 0.1 degrees Celcius on CHK2 Catalytic Domain. The “Melting temperature (Tm) shift” value at STK3 Catalytic Domain came to 0.2 degrees Celcius.

As to `O=C1Nc2ccc(Cl)cc2C1=Cc1cc(Cl)c(O)c(Cl)c1` [PKR Inhibitor, Negative Control], the “Melting temperature (Tm) shift” value at FES Catalytic Domain was 0.4 degrees Celcius; in experiment [1] it was 1.5 degrees Celcius; on CDK2 + Cyclin E it was 0.6 degrees Celcius; on PAK7 Catalytic Domain, 0.3 degrees Celcius; on FES Catalytic Domain+SH2, 0.5 degrees Celcius; at DMPK Catalytic Domain, 3.2 degrees Celcius. Also, the “Melting temperature (Tm) shift” value on CHK2 Catalytic Domain came to 3.9 degrees Celcius; on PAK4 Catalytic Domain, 0.9 degrees Celcius; in experiment [2], 2.1 degrees Celcius; on STK3 Catalytic Domain, 1.2 degrees Celcius.

The values above are taken from paper PMC4051630, “A Comparison of Protein Kinases Inhibitor Screening Methods Using Both Enzymatic Activity and Binding Affinity Determination” (PLoS ONE, 2014).
